Reference: US5654309A, “Pyridopyrimidine derivatives, their production and use” (Takeda Chemical Industries, Ltd., priority 1992, dated 1997)

Assays:
[1] = target: T1, Endothelin-A Receptor (porcine) (Sus scrofa, UniProt Q29010); experiment: Endothelin Receptor-Assay, [125I]endothelin-1 binding, porcine cardiac ventricular muscle membrane; conditions: 25° C., 60 minutes, concentration causing PMB=50%
T1 construct: a fraction of porcine cardiac ventricular muscle membrane; from tissue; host or cells: porcine cardiac ventricular muscle membrane
T1 sequence (Q29010 21-427): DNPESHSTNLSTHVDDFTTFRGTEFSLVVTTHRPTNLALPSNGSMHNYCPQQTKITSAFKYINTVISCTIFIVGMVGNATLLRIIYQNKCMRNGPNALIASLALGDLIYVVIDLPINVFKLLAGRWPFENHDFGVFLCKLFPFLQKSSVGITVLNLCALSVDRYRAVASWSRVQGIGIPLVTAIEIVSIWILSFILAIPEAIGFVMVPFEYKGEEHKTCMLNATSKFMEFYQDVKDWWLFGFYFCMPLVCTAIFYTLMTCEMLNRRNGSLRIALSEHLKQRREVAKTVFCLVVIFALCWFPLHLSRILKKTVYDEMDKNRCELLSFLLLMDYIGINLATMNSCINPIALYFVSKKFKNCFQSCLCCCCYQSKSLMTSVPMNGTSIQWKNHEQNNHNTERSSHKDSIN
Protocol: Endothelin-A receptors was prepared by diluting a fraction of porcine cardiac ventricular muscle membrane with an assay buffer [20 mM Tris-HCl, 2 mM EGTA (ethyleneglycol bis(2-aminoethylether) tetra acetic acid), 5 mM magnesium acetate, 0.1% BSA (bovine serum albumin), 0.03% NAN3, 0.5 mM PMSF (phenyl methyl sulfonyl fluoride), 20 μg/ml leupeptin, 4 μg/ml E-64 (products of the Peptide Institute), 1 μg/ml pepstatin, (pH 7.2)] to make a solution of the fraction of porcine cardiac ventricular membrane (12 μg/ml).
(§1) To 100 μl of each portion was added 5 nM [^125 I] endothelin-1 (2 μl). A dimethylsulfoxide solution (3 μl) of the sample was added thereto and incubated at 25° C. for 60 minutes.
And, to determine the maximum binding amount (B0) and non-specific binding amount (NSB), lots to which a dimethyl sulfoxide solution (3 μl) or a dimethyl sulfoxide solution (3 μl) containing endothelin-1 (10^-5 M) was added were also incubated. […]
(§2) Radioactivity on the filter was counted in a gamma-counter to determine the Percent Maximum Binding (PMB) in accordance with the following calculation formula.
The concentration causing PMB=50% was determined as IC50 value. […]

[2] = target: T2, Endothelin-A Receptor (human) (Homo sapiens, UniProt P25101); experiment: Endothelin Receptor-Assay, [125I]endothelin-1 binding, insect cell (Sf9) membrane having human endothelin-A receptors; conditions: human ETA, 25° C., 60 minutes, concentration causing PMB=50%
T2 construct: expressed in transfected cells; host or cells: Sf9 insect cells
T2 sequence (P25101 21-427): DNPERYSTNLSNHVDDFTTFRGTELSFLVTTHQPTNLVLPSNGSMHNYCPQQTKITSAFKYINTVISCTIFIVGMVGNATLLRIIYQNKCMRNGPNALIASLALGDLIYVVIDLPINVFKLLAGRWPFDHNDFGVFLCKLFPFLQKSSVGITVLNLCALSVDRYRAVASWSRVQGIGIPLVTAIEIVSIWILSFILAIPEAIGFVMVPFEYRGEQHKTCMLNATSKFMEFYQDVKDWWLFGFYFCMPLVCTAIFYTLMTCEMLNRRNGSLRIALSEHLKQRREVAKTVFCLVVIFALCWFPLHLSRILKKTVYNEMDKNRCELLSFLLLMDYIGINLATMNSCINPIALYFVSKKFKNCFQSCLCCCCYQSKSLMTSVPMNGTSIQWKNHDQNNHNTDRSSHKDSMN
Protocol: (§3) Endothelin (ET) receptors were prepared by diluting fractions of insect cell (Sf9) membrane having human endothelin-A (ETA) receptors or human endothelin-B (ETB) receptors appeared, with an assay buffer [20 mM Tris-HCl, 2 mM EGTA (ethyleneglycol bis(2-aminoethylether) tetra acetic acid), 5 mM magnesium acetate, 0.1% BSA (bovine serum albumin), 0.03% NAN3, 0.5 mM PMS F (phenyl methyl sulfonyl fluoride), 20 μg/ml leupeptin, 4 μg/ml E-64 (products of the Peptide Institute), 1 μg/ml pepstatin, (pH 7.2)] respectively in a concentration of 1.4 μg/ml in the former case and 0.7 μg/ml in the latter case.
as §1
(§4) And, to determine the maximum binding amount (B0) and non-specific binding amount (NSB), lots to which a dimethyl sulfoxide solution (3 μl) or a dimethyl sulfoxide solution (3 μl) containing endothelin-1 (10^-5 M) had been added, were also incubated.
(§5) These lots were supplemented with 0.05% CHAPS (3-[(3-[…])dimethylammonio]-1-propanesulfonate)-assay buffer (1.5 ml), subjected to filtration through a glass fiber filter GF/F (trade name; product of Wattman Ltd. (England)), and then washed with the same buffer (1.5 ml).
(§6) Radioactivity on the filter was counted in a gamma-counter to determine the Percent Maximum Binding (PMB) in accordance with the aforesaid calculation formula. The concentration causing PMB=50% was determined as IC50 value.

[3] = target: T3, Endothelin-B Receptor (bovine) (Bos taurus, UniProt P28088); experiment: Endothelin Receptor-Assay, [125I]endothelin-1 binding, bovine cerebral membrane; conditions: 25° C., 60 minutes, concentration causing PMB=50%
T3 construct: a fraction of bovine cerebral membrane; from tissue; host or cells: bovine cerebral membrane
T3 sequence (P28088 27-441): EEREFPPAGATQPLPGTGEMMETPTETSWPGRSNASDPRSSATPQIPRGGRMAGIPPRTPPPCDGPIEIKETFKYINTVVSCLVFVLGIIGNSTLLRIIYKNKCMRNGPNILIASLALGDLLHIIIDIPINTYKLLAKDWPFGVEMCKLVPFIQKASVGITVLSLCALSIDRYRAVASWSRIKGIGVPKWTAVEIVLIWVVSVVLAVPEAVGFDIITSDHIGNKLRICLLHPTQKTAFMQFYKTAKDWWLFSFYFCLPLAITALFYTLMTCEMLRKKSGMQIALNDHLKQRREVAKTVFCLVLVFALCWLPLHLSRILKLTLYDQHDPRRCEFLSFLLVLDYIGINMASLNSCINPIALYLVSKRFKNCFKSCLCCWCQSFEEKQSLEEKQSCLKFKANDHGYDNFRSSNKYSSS
Protocol: Endothelin-B receptor was prepared by diluting a fraction of bovine cerebral membrane with the same assay buffer as mentioned above to make a solution having a concentration of 180 μg/ml.
as §1
And, to determine the maximum binding amount (B0) and non-specific binding amount (NSB), lots to which a dimethyl sulfoxide solution (3 μl) or a dimethyl sulfoxide solution (3 μl) containing endothelin-1 (10^-5 M) was added were also incubated.
as §5, §2
The concentration causing PMB=50% was determined as IC50 value.
PMB=[(B-NSB)/(B0 -NSB)]×100

[4] = target: T4, Endothelin-B Receptor (human) (Homo sapiens, UniProt P24530); experiment: Endothelin Receptor-Assay, [125I]endothelin-1 binding, insect cell (Sf9) membrane having human endothelin-B receptors; conditions: human ETB, 25° C., 60 minutes, concentration causing PMB=50%
T4 construct: expressed in transfected cells; host or cells: Sf9 insect cells
T4 sequence (P24530 27-442): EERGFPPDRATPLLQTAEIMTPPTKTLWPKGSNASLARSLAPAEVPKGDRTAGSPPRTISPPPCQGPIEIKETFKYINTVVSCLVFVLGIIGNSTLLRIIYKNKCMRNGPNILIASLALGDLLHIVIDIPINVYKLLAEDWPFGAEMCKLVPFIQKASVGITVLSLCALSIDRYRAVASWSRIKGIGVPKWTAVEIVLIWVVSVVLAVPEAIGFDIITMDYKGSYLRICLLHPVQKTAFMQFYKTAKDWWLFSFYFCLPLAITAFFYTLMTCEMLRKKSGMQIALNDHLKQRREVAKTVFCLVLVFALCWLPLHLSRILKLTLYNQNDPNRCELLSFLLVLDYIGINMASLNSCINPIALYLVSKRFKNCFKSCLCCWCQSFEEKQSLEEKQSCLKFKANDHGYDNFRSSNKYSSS
Protocol: as §3, §1, §4, §5, §6

Structure (SMILES)	IC50 [1]	IC50 [2]	IC50 [3]	IC50 [4]
CCOC(=O)c1c(C)nc2c(c1-c1ccc(OC)cc1)c(=O)n(CC(=O)O)c(=O)n2Cc1ccccc1OC [Example 12, 2,4(1H,3H)-dioxo-6-ethoxycarbonyl-7-methyl-1-(2-methoxybenzyl)-5-(4-methoxyphenyl)pyrido[2,3-d]pyrimidine-3-acetic Acid]	18 µM	22 µM	130 µM	
COc1ccccc1Cn1c(=O)n(CC(=O)O)c(=O)c2c(-c3cc(=O)c4ccccc4[nH]3)c(C(=O)O)c(C(C)C)nc21 [Example 20]		0.12 µM		14 µM
COc1ccccc1Cn1c(=O)n(CC(=O)O)c(=O)c2c(-c3ccc4ccccc4n3)c(C(=O)O)c(C(C)C)nc21 [Example 14, 2,4(1H,3H)-dioxo-6-carboxy-7-isopropyl-1-(2-methoxybenzyl)-5-(2-quinolyl)pyrido[2,3-d]pyrimidine-3-acetic Acid]		3.7 µM		67 µM
CCOC(=O)Cn1c(=O)c2c(-c3cc(=O)c4ccccc4[nH]3)c(C(=O)O)c(C(C)C)nc2n(Cc2ccccc2SC)c1=O [Example 31, Ethyl [2,4(1H,3H)-dioxo-6-carboxy-7-isopropyl-1-(2-methylthiobenzyl)-5-[2-(4-quinolonyl)]pyrido[2,3-d]pyrimidine]-3-acetate]		0.12 µM		88 µM
COc1ccccc1Cn1c(=O)n(CC(=O)O)c(=O)c2c(-c3ccc4ccccc4n3)c(C(=O)OCC(C)C)c(C(C)C)nc21 [Example 27, 2,4(1H,3H)-dioxo-6-isobutoxycarbonyl-7-isopropyl-1-(2-methoxybenzyl)-5-(2-quinolyl)pyrido[2,3-d]pyrimidine-3-acetic Acid]		4.5 µM		47 µM
COc1ccccc1Cn1c(=O)n(CC(=O)O)c(=O)c2c(-c3ccc4ccccc4n3)c(C(=O)OCCC#N)c(C(C)C)nc21 [Example 29, 2,4(1H,3H)-dioxo-6-cyanoethoxycarbonyl-7-isopropyl-1-(2-methoxybenzyl)-5-(2-quinolyl)pyrido[2,3-d]pyrimidine-3-acetic Acid]		0.57 µM		95 µM
COc1ccccc1Cn1c(=O)n(CC(=O)OC(C)(C)C)c(=O)c2c(-c3ccc4ccccc4n3)c(C(=O)O)c(C(C)C)nc21 [Example 16, t-Butyl [2,4(1H,3H)-dioxo-6-carboxy-7-isopropyl-1-(2-methoxybenzyl)-5-(2-quinolyl)pyrido[2,3-d]pyrimidine]-3-acetate]		1.6 µM		69 µM
CCOC(=O)c1c(C(C)C)nc2c(c1-c1ccc(C)cc1)c(=O)n(CC(=O)O)c(=O)n2Cc1ccccc1OC [Example 10, 2,4(1H,3H)-dioxo-6-ethoxycarbonyl-7-isopropyl-1-(2-methoxbenzyl)-5-(4-tolyl)pyrido[2,3-d]pyrimidine-3-acetic Acid]	11 µM	11 µM	64 µM	
CCOC(=O)Cn1c(=O)c2c(-c3cc(=O)c4ccccc4[nH]3)c(C(=O)O)c(C(C)C)nc2n(Cc2ccccc2OC)c1=O [Example 19 Compound No. 2]		0.07 µM		65 µM
CCOC(=O)Cn1c(=O)c2c(-c3cc(=O)c4ccccc4[nH]3)c(C(=O)O)c(C(C)C)nc2n(Cc2ccc(OC)cc2OC)c1=O [Example 19 Compound No. 5]		0.98 µM		23 µM
CCOC(=O)c1c(C(C)C)nc2c(c1-c1ccc3ccccc3n1)c(=O)n(CC(=O)O)c(=O)n2Cc1ccccc1OC [Example 28 Compound No. 8]		1.1 µM		76 µM
CCOC(=O)Cn1c(=O)c2c(-c3ccc4ccccc4n3)c(C(=O)O)c(C(C)C)nc2n(Cc2ccccc2OC)c1=O [Example 17 Compound No. 1]		0.71 µM		19 µM
COc1ccc(Cn2c(=O)n(CC(=O)O)c(=O)c3c(-c4ccc5ccccc5n4)c(C(=O)O)c(C(C)C)nc32)c(OC)c1 [Example 15 Compound No. 4]		0.89 µM		95 µM
CSc1ccccc1Cn1c(=O)n(CC(=O)O)c(=O)c2c(-c3cc(=O)c4ccccc4[nH]3)c(C(=O)O)c(C(C)C)nc21 [Example 21 Compound No. 9]		0.056 µM		14 µM
COc1ccccc1Cn1c(=O)n(CC(=O)OC(C)(C)C)c(=O)c2c(-c3cc(=O)c4ccccc4[nH]3)c(C(=O)O)c(C(C)C)nc21 [Example 18, t-Butyl [2,4(1H,3H)-dioxo-6-carboxy-7-isopropyl-1-(2-methoxbenzyl)-5-[2-(4-quinolonyl)]pyrido[2,3-d]pyrimidine]-3-acetate]		0.15 µM		69 µM
CCOC(=O)c1c(C(C)C)nc2c(c1-c1cc(=O)c3ccccc3[nH]1)c(=O)n(CC(=O)O)c(=O)n2Cc1ccccc1OC [Example 23, 2,4(1H,3H)-dioxo-6-ethoxycarbonyl-7-isopropyl-1-(2-methoxybenzyl)-5-[2-(4-quinolonyl)]pyrido[2,3-d]pyrimidine-3-acetic Acid]		0.92 µM		4.3 µM
